Earlier results on one molecule are cited in US10555523B2, “Self indicating antimicrobial chemistry” (ECOLAB USA INC, priority 2015, dated 2020).

The test system of this data set is microorganisms.

Take `CC(=O)OO` [Peracetic acid]: the “concentration needed for biocidal activity” value is “greater than 80 part per million”.
